Key:
[1] = test system: HeLa cells; assay: Cell counting / growth curves in in vitro culture; assay type: cell-based, human; conditions: for decrease in HeLa cell number compared to the control: 47 µM; for number of HeLa cells, % of the control: 1500 µM (maximum concentration); for GI50: HeLa cells, concentration causing 50% cell growth inhibition, from cell growth graphs, mean ± SD; for growth of HeLa cells in culture: microscopic observation / growth curves
[2] = test system: fibroblasts (ATCC-CRL-2106); assay: Cell counting / growth curves in in vitro culture; assay type: cell-based, human; conditions: for fibroblast cell number / growth in comparison to the controls: 6–1500 µM; for GI50: Homo sapiens, Fibroblast, fibroblasts, concentration causing 50% cell growth inhibition, from cell growth graphs
[3] = test system: HeLa cells; assay: MTT test (cell metabolic activity); assay type: cell-based, human; conditions: for IC50: HeLa cells, 50% reduction in cell metabolism rate, MTT test; for IC50 / SI (selectivity index): mean ± SD; for SI (selectivity index): ratio of IC50 (MTT) fibroblasts versus HeLa cells
Description: (§1) We investigated the cytotoxicity and effects of oxythiamine and 2′-methylthiamine on fibroblast (ATCC-CRL-2106) and HeLa (the human cervical cancer cell line; CCL-2; ATCC, Manassas, VA, USA) cell growth. Fibroblasts were at passage 5 and HeLa cells were at passage 15. Cells were cultured under the 5% CO2 and 95% humidity in Medium199 (M4530; Sigma-Aldrich, St. Louis, MO, USA) with 10% fetal bovine serum (F7524; Sigma-Aldrich), 50 U/mL penicillin, and 50 µg/mL streptomycin (P0781; Sigma-Aldrich) at 37 °C. The media was changed every 2 days. Cells were seeded at the density of 1 × 10^5 cells/well in 12-well plates one day prior to the addition of the test compounds. […] The toxicity of oxythiamine and 2′-methylthiamine was determined by means of colorimetric detection using the MTT test. The cells were incubated for 0.5 h in 0.5 mL of PBS with 50 μL of MTT (5 mg/mL). The medium was then removed from the wells, and formazan crystals were dissolved in 0.5 mL of dimethyl sulfoxide (DMSO) with 0.01 mL of Sorensen’s buffer. Absorbance was measured by means of the Lambda E plate reader (MWG Biotech AG, Ebensburg, Germany) at a wavelength of 570 nm. The results were expressed as a percentage of the controls. […] The experiments were conducted in six independent replicates for the purpose of statistical evaluation.

[4] = test system: fibroblasts (ATCC-CRL-2106); assay: MTT test (cell metabolic activity); assay type: cell-based, human; conditions: for IC50: Homo sapiens, Fibroblast, fibroblasts, 50% reduction in cell metabolism rate, MTT test
Description: as §1

[5] = test system: primary human gingival fibroblasts; design: method as in PMID 35409800; conditions: 100 µM; cited from earlier work
[6] = test system: OCT1; conditions: OCT1-related transport of drugs to cancer cells; cited from earlier work
[7] = target: rat liver transketolase; design: method as in PMID 3730445; conditions: cited from earlier work
[8] = target: yeast transketolase; design: method as in PMID 13719876; conditions: cited from earlier work
[9] = test system: human skin fibroblasts; design: method as in PMID 25626895; conditions: 30 µM to 1000 µM; cited from earlier work
[10] = test system: THTR1 (SLC19A2); conditions: thiamine transport by THTR1; cited from earlier work
[11] = test system: THTR2 (SLC19A3); conditions: thiamine transport by THTR2; cited from earlier work

Row | Structure (SMILES) | decrease in HeLa cell number compared to the control [1] | number of HeLa cells, % of the control [1] | GI50 [1] | GI50 ([1]; Homo sapiens, HeLa) | growth of HeLa cells in culture [1] | fibroblast cell number / growth in comparison to the controls [2] | GI50 [2] | IC50 ([3]; Homo sapiens) | SI (selectivity index) [3] | IC50 [4] | reduction in cell viability [5] | further results
1 | Cc1ncc(C[n+]2c(C)sc(CCO)c2C)c(N)n1 [2′-methylthiamine, 2-[3-[(4-Amino-2-Methylpyrimidin-5-yl)methyl]-2,4-dimethyl-1,3-thiazol-3-ium-5-yl]ethanol] | decrease in the cell number by only about a half | ~25% | 107 µM | 83 µM | inhibit the growth | did not find any significant differences | > 1.5 mM | 112 µM | 180 | > 1.5 mM |  | decrease of metabolic activity of HeLa cells (MTT) concerning the control ([3]; 750 µM): 30%; melting point: 211 to 214 °C
2 | C/C(=C(\CCOP(=O)(O)O)SC(=O)c1ccccc1)N(C=O)Cc1cnc(C)[nH]c1=O [benfooxythiamine] |  |  |  |  |  |  |  |  |  |  | about 10% | 
3 | COc1cccc2c1C(=O)c1c(O)c3c(c(O)c1C2=O)C[C@@](O)(C(=O)CO)C[C@@H]3O[C@H]1C[C@H](N)[C@H](O)[C@H](C)O1 [doxorubicin] |  |  |  |  |  |  |  |  |  |  |  | Km [6]: 4.6 µM
4 | Cc1ncc(C[n+]2csc(CCO)c2C)c(O)n1 [oxythiamine] | higher than five-fold decrease | 2% | 36 µM | 39 µM | inhibit the growth | did not find any significant differences | > 1.5 mM | 51 µM | 153 | > 1.5 mM | about 10% | activity at 47 µM ([3]; Homo sapiens, HeLa, 47 µM, read-out: metabolic activity of HeLa cells (MTT), % of control): 50%; IC50 [7]: 200 nM; IC50 [8]: ~30 nM; cell survival [9]: not affecting cell survival
5 | Cc1ncc(C[n+]2csc(CCO)c2C)c(N)n1 [thiamine] |  |  |  | > 1500 µM | did not observe any differences | did not observe any differences | > 1.5 mM | > 1500 µM |  | > 1.5 mM |  | metabolic activity of fibroblasts (MTT) ([4]; concentrations above 47 µM): slightly increased; Km [10]: 2500 nM; Km [11]: 0.27 nM

Source: PMC11050282, “In Vitro and In Silico Studies on Cytotoxic Properties of Oxythiamine and 2′-Methylthiamine” (International Journal of Molecular Sciences, 2024)
